Assay results reported in patent EP0429304A2, “Pyridone-carboxylic acid derivatives and their use as veterinary medicines” (SHIONOGI SEIYAKU KABUSHIKI KAISHA trading under the name of …, priority 1989, dated 1991).
Where two headings read alike, the source gives them in different places.

Tests used:
[1] = test system: TS-resistant strain of MG; assay type: in vivo, chicken; conditions: for Number of infected fowl/Number of fowl tested: 3.5 x 10³ CFU/fowl
[2] = test system: TS-resistant MG; test: Experimental MG infection to chicken, through bait; assay type: in vivo; conditions: 9-days chicken; for Number of fowl having air sack lesions: 1.8 x 10³ CFU/fowl; for Number of infected fowl/Number of fowl tested: 6.6 x 10³ CFU/fowl, dissection 6th day after inoculation
[3] = test system: H.pp (otherwise called Actinobacillus pleuropneumoniae) strain M-1; test: Experimental H.pp infection to pig, through injection; assay type: in vivo; conditions: injection to thigh muscle one time, dissection 6 days after inoculation
Procedure: (§1) In these experiments, the compound (I) was applied to the designated animals by (1) oral administration, (2) incorporation into baits and (3) intramuscular injection, the details of which are explained below.
(3) Preparation of the MG infected fowls was performed in the same manner as in (1) above. Infection of H.pp (otherwise called Actinobacillus pleuropneumoniae) to cause pleuropneumonia in pig was performed by inoculating 5 ml of a fresh cultured strain (i.e. M-1) of H.pp to each nasopharyngeal of some 45 days pigs, each weighing 4 to 9 kg (4 to 5 pigs/group), followed by injection of the test compounds to each thigh muscle at a designated volume one time. Pigs were dissected 6 days after the inoculation. The evaluation of the antimicrobial activity was made by observation of the pneumonia symptomes in air sacs, number of dead body and degree of nodosity in air sacks on dissection.

[4] = test system: TS-resistant MG; test: Experimental MG infection to chicken, through injection; assay type: in vivo; conditions: 5 fowl tested, 10-days chicken, 3.1 x 10³ CFU/fowl
[5] = test system: Hemophilus pleuropneumonia (H.pp) M-1; test: In vitro sensitivity test (agar dilution method); assay type: cell-based; conditions: 37°C, 20 hours, 10 % CO₂
[6] = test system: Hemophilus paragallinarum (H.pg) 221; test: In vitro sensitivity test (agar dilution method); assay type: cell-based; conditions: agar dilution, 37°C, 20 hours, 10 % CO₂
[7] = test system: Hemophilus paragallinarum (H.pg) S-1; test: In vitro sensitivity test (agar dilution method); assay type: cell-based; conditions: agar dilution, 37°C, 20 hours, 10 % CO₂
[8] = test system: Staphylococcus aureus (S.au) 209P; test: In vitro sensitivity test (agar dilution method); assay type: cell-based; conditions: 37°C, 20 to 24 hours
Outline: (§2)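 Read-out is visual growth after incubation. Conditions were 37°C for 7 days in Frey medium (12 % pig-serum, 0.01 % βNAD; liquid dilution) for MS, and 37°C for 20 to 24 hours on Mueller Hinton agar for S.au. P.pis used 25°C, 40 to 48 hours, on 1.5 % NaCl heart infusion agar.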

[9] = test system: Bordetella bronchiseptica (B.br) ABU-1; test: In vitro sensitivity test (agar dilution method); assay type: cell-based; conditions: 37°C, 20 to 24 hours
[10] = test system: Escherichia coli (E.coli) E-17, chicken-origin strain isolated from the field; test: In vitro sensitivity test (agar dilution method); assay type: cell-based; conditions: 37°C, 20 to 24 hours
Outline: as §2

[11] = test system: Escherichia coli (E.coli) JC-2; test: In vitro sensitivity test (agar dilution method); assay type: cell-based; conditions: 37°C, 20 to 24 hours
[12] = test system: Mycoplasma gallisepticum (MG) T-7-T, TS-resistant strain isolated from the field; test: In vitro sensitivity test (liquid dilution method); assay type: cell-based; conditions: 37°C, 7 days
[13] = test system: Mycoplasma synoviae (MS) 1853; test: In vitro sensitivity test (liquid dilution method); assay type: cell-based; conditions: 37°C, 7 days
Outline: as §2

[14] = test system: Mycoplasma gallisepticum (MG) S6; test: In vitro sensitivity test (liquid dilution method); assay type: cell-based; conditions: 37°C, 7 days
[15] = test system: Mycoplasma hyopneumoniae (Mh) ST-11; test: In vitro sensitivity test (liquid dilution method); assay type: cell-based; conditions: 37°C, 7 days
[16] = test system: Mycoplasma synoviae (MS) F10-2as; test: In vitro sensitivity test (liquid dilution method); assay type: cell-based; conditions: 37°C, 7 days
Outline: as §2

[17] = test system: H.pg strain (i.e. 221); test: Experimental H.pg infection to chicken, through bait; assay type: in vivo; conditions: 28-days chicken infected with 4 x 10⁸ CFU/fowl, dissection, 10th day after inoculation
From the text: as §1

CCN1CCN(c2cc3c(cc2F)c(=O)c(C(=O)O)cn3C2CC2)CC1 [ERFX, Enrofuroxasin®, reference compound]
Number of infected fowl/Number of fowl tested ([1]; oral 1.56 mg/kg, 9-days chicken): 2/5 | Number of fowl having air sack lesions ([1]; oral 3.13 mg/kg, 9-days chicken, 2.2 x 10³ CFU/fowl): 2 | Number of infected fowl/Number of fowl tested ([1]; oral 3.13 mg/kg, 9-days chicken): 0/5 | Number of fowl having air sack lesions ([1]; oral 6.25 mg/kg, 9-days chicken, 1.7 x 10³ CFU/fowl): 1 | Number of fowl having air sack lesions ([1]; oral 6.25 mg/kg, 9-days chicken, 2.2 x 10³ CFU/fowl): 0 | Number of infected fowl/Number of fowl tested ([1]; oral 6.25 mg/kg, 9-days chicken): 0/5 | Number of fowl having air sack lesions ([1]; oral 6.25 mg/kg, 10-days chicken, 1.2 x 10³ CFU/fowl): 2 | Number of fowl having air sack lesions ([1]; oral 6.25 mg/kg, 10-days chicken, 3.0 x 10³ CFU/fowl): 2 | Number of fowl having air sack lesions ([1]; oral 12.5 mg/kg, 9-days chicken, 1.7 x 10³ CFU/fowl): 0 | Number of fowl having air sack lesions ([1]; oral 12.5 mg/kg, 9-days chicken, 2.2 x 10³ CFU/fowl): 0 | Number of fowl having air sack lesions ([1]; oral 12.5 mg/kg, 10-days chicken, 1.2 x 10³ CFU/fowl): 0 | Number of fowl having air sack lesions ([1]; oral 12.5 mg/kg, 10-days chicken, 3.0 x 10³ CFU/fowl): 0 | Number of fowl having air sack lesions ([1]; oral 25.0 mg/kg, 9-days chicken, 1.7 x 10³ CFU/fowl): 0 | Number of fowl having air sack lesions ([1]; oral 25.0 mg/kg, 10-days chicken, 1.2 x 10³ CFU/fowl): 0 | Number of fowl having air sack lesions ([1]; oral 25.0 mg/kg, 10-days chicken, 3.0 x 10³ CFU/fowl): 0 | complete inihibition of the lesions in air sac at a concentration of ([1]; oral administration, MG-infected chicken): 12.5 mg/kg | Number of fowl having air sack lesions ([2]; bait 15.6 ppm/Day): 1 | Number of fowl having air sack lesions ([2]; bait 31.3 ppm/Day): 0 | Number of infected fowl/Number of fowl tested ([2]; bait 31.3 ppm/Day): 1/7 | Number of fowl having air sack lesions ([2]; bait 62.5 ppm/Day): 0 | Number of infected fowl/Number of fowl tested ([2]; bait 62.5 ppm/Day): 0/7 | Number of infected fowl/Number of fowl tested ([2]; bait 125 ppm/Day): 0/7 | Number of pig died or developed dyspnea/Number of pig tested ([3]; Dose 5 mg/kg): 0/4 | Number of pig having nodi/Number of pig tested ([3]; Dose 5 mg/kg): 0/4 | Number of pig died or developed dyspnea/Number of pig tested ([3]; Dose 10 mg/kg): 0/4 | Number of pig having nodi/Number of pig tested ([3]; Dose 10 mg/kg): 0/4 | Number of fowl having air sack lesions ([4]; Dose 1.56 mg/kg): 3 | Number of fowl having air sack lesions ([4]; Dose 3.13 mg/kg): 2 | In vitro Sensitivity Test H.pp M-1 [5]: 0.2 µg/mL | In vitro Sensitivity Test H.pg 221 [6]: 0.1 µg/mL | In vitro Sensitivity Test H.pg S-1 [7]: 0.2 µg/mL | In vitro Sensitivity Test S.au 209P [8]: 0.1 µg/mL | In vitro Sensitivity Test B.br ABU-1 [9]: 0.1 µg/mL | In vitro Sensitivity Test E.coli E-17 [10]: 0.1 µg/ml | In vitro Sensitivity Test E.coli JC-2 [11]: 0.1 µg/mL | In vitro Sensitivity Test MG T-7-T [12]: 0.1 µg/mL | In vitro Sensitivity Test MS 1853 [13]: 0.1 µg/mL | In vitro Sensitivity Test MG S6 [14]: 0.1 µg/mL | In vitro Sensitivity Test Mh ST-11 [15]: 0.05 µg/mL | In vitro Sensitivity Test MS F10-2as [16]: 3.13 µg/ml | Effective concentration to prevent pituita [17]: 7.8 ppm/day
